Test results as given in PMC5766608, “Target engagement imaging of PARP inhibitors in small-cell lung cancer” (Nature Communications, 2018).
Entries after “also recorded” stand apart in the source; their conditions may differ.

Key:
[1] = system: JHU-LX22 cells; test: Cytotoxicity, Alamar Blue assay; assay type: cell-based, human; settings: 24-96 h
Protocol: […]. Cells were plated in 96-well plates (black, clear-bottom, Corning Incorporated) at a density of 5,000 cells/well and allowed them to attach for 24 h. All compounds were prepared as 10 mM stock solutions in DMSO and further diluted in media. Cells were treated with 0, 2, 5, and 10 µM (final solutions containing 1% DMSO) of each compound for 24, 48, 72 and 96 h. Then, media was removed and Alamar Blue reagent was added to each well. Plates were incubated at 37 °C for 4 h under protection from direct light. Fluorescence was read (bottom-read mode) using an excitation wavelength of 570 nm and an emission wavelength of 585 nm on a SpectraMax M5 microplate reader (Molecular Devices, Sunnyvale, CA, USA). The average reading values were analyzed by subtracting the background readings (wells with Alamar Blue but without cells) and compared against the untreated controls of each plate (defined as 100% viability) to determine the percentage of living cells. The experiment was carried out in three biological replicates with four parallels of each compound.
Supplementary Figure 9 | In vitro toxicity of the tested PARP inhibitors and imaging tracers on JHU-LX22 cells. (a) Assessment of viable cell population during flow cytometry after a 2 hour incubation time of several PARP inhibitors at concentrations between 0 and 5 µM. (b) Cell viability determination using Alamar Blue assays. Cells were incubated with 0, 0.2, 2, 5 or 10 µM of each compound for 24, 48, 72 or 96 h and cell viability was assessed using the Alamar Blue assay. (c) IC values derived from Alamar Blue assays at 72 h and 96 h.
Viability data represent means from three independent experiments, each with four parallels of each sample. Error bars represent the standard error (SEM). […]

[2] = biological target: T1, TNKS1 (Homo sapiens, UniProt O95271); test: PARP family enzyme activity inhibition screening (BPS Bioscience); assay type: biochemical; settings: 100 nM inhibitor
T1 construct: purchased BPS Bioscience, San Diego, CA
T1 sequence (O95271 1-1327): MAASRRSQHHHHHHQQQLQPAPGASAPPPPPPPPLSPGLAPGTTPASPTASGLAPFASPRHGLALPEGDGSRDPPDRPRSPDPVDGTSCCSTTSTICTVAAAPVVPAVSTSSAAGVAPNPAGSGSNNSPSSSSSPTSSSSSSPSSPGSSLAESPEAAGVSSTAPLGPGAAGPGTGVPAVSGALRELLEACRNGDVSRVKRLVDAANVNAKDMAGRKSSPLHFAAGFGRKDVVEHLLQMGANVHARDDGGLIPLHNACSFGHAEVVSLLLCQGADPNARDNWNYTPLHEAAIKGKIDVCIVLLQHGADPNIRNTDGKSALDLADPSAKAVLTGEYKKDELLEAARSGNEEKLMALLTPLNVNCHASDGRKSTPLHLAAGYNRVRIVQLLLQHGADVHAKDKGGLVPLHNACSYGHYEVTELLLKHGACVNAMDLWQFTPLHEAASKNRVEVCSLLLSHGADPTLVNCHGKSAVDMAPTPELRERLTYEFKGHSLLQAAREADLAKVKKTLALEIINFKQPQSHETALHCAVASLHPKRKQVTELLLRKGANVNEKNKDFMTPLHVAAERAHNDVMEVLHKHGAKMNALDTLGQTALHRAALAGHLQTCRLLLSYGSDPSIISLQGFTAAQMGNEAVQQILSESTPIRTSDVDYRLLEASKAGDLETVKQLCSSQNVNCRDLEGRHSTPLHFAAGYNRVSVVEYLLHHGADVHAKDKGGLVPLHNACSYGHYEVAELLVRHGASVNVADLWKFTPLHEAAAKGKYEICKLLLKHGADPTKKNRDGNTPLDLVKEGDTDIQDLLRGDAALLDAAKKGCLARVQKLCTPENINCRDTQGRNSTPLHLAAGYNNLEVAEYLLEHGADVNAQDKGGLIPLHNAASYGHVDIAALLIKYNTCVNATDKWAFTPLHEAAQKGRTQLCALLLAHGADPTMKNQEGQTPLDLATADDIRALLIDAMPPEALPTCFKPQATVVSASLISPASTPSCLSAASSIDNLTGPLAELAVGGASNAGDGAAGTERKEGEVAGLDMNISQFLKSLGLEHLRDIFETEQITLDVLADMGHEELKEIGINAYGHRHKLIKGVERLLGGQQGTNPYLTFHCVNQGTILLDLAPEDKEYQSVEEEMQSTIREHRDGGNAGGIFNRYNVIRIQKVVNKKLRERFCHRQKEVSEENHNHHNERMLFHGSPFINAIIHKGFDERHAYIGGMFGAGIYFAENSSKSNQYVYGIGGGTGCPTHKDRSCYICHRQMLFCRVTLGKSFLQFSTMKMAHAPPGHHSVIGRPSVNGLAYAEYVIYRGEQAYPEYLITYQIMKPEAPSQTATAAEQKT
Protocol: Fig. 1 Properties of PARP inhibitors. a Structures of 5 clinical therapeutic PARP inhibitors and the 2 PARP imaging agents. b Heatmap visualizing enzymatic activity screening of 10 small molecules against 12 PARP enzymes at 100 nM concentration (for additional concentrations, see Supplementary Fig. 1)
Assay was performed by BPS Bioscience, San Diego, CA. 100 µM DMSO solutions of each inhibitor were provided, and the assay was conducted after dilution to 100, 50, or 10 nM. […] Data was reported by BPS as % Enzyme Activity. Triplicates were combined to get a mean ± SD, and these were grouped and plotted onto a heatmap using Prism 7.
Supplementary Figure 1 | PARP enzyme family binding assays at additional concentrations.
histone substrate and biotin-labeled NAD+ at 100 nM (Fig. 1b), 50 nM (left) and 10 nM (right) for
each inhibitor and each enzyme.

| inhibition at 0.1 µM [2] [%] | SMILES | Effect on JHU-LX22 cell viability, in words [1] | Inhibition of TNKS1 enzyme activity [2] |
| --- | --- | --- | --- |
| ≤ 5 | CC1=CC(C)=[N+]2C1=Cc1ccc(CCC(=O)N3CCN(C(=O)c4cc(Cc5n[nH]c(=O)c6ccccc56)ccc4F)CC3)n1[B-]2(F)F [PARPi-FL] | very similar effects on JHU-LX22 cell viability as other inhibitors; also recorded: very similar effects on JHU-LX22 cell viability as olaparib | – |
| – | Cn1ncnc1[C@H]1c2n[nH]c(=O)c3cc(F)cc(c23)N[C@@H]1c1ccc(F)cc1 [Talazoparib, (8S,9R)-5-Fluoro-8-(4-fluorophenyl)-9-(1-methyl-1H-1,2,4-triazol-5-yl)-2,7,8,9-tetrahydro-3H-pyrido[4,3,2-de]phthalazin-3-one] | most sensitive | exhibited inhibition |
| – | O=C(c1ccc(F)cc1)N1CCN(C(=O)c2cc(Cc3n[nH]c(=O)c4ccccc34)ccc2F)CC1 [^19F-PARPi] | very similar effects on JHU-LX22 cell viability as other inhibitors; also recorded: very similar effects on JHU-LX22 cell viability as olaparib | ≤ 5% |
